# In patent US7294715B2, “Aporphine and oxoaporphine compounds and pharmaceutical use thereof” (Lotus Pharmaceutical Co., Ltd., priority 2003, dated 2007):
# Marks after values point to notes of the source that are not given here.
# Assays:
# [1] = Safety at multiples of the effective dose in rabbits; conditions: 10-100 times the effective dose
# eNOS = assay: Western blot analysis for eNOS protein in ischemia-reperfusion rat heart; assay type: in vivo; conditions: ischemia 25 min, reperfusion 2 h, 1.5 mg/kg at 5 min prior to reperfusion, P<0.05 vs vehicle
# Method: To elucidate the effects of the test compounds on the infarct size caused by regional myocardial ischemia and reperfusion, all animals were randomized into 8 study groups. The first group (Sham) comprised of animals not subjected to regional myocardial ischemia (25 min) followed by reperfusion (2 h) and treated with vehicle (1 ml/kg) 5 minutes prior to the onset of reperfusion. The second group of animals were subjected to regional myocardial ischemia (25 min) followed by reperfusion (2 h) and were treated with vehicle (saline, 1 ml/kg). […]
# Hearts were pulverized at −80° C. using liquid nitrogen and a stainless steel pestle and mortar. […] Total protein concentrations were determined using the Bradford method (Bio-Rad, UK). […] Signals were detected using the enhanced chemiluminescence (ECL™) detection system (Cell Signaling Technology, U.S.A.) and autoradiographic film. For quantification of protein expression all blots were reprobed for muscle α-actin expression using 1/2000 dilution of a mouse anti-human actin (muscle antibody (Serotec), followed by incubation with a goat anti-mouse HRP linked secondary antibody ( 1/2000 dilution) (DakoCytomation, Denmark). Densitometry analysis was performed on scanned images (Hewlett Packard Scanjet) and analyzed using Scion Image (Scion Corp, National Institutes of Health, Bethesda, Md.).
# [2] = test system: Langendorff perfused rat hearts; assay: Coronary flow in Langendorff perfused rat hearts; conditions: FIG. 3
# Method: Adult male Wistar rats weighing 275-325 g, were intraperitoneally anesthetized with sodium pentobarbital (50 mg·kg^−1) and given heparin (300 Ukg·kg^−1) by the same route. Hearts were rapidly excised and immersed in 37° C. perfusion medium. The aorta was cannulated and retrograde-perfused at 80 mmHg with Tyrode's solution containing 120 mM NaCl, 25 mM NaHCO3, 3 mM KCl, 1.2 mM NaH2PO4, 2.5 mM CaCl2, 1.2 mM MgCl2, and […] 5.5 mM glucose. The perfusate was equilibrated with 95% O2, 5% CO2 at 37° C. Perfusion pressure was monitored using a MLT844/D pressure transducer (Capto, Horten, Norway) connected to a PowerLab (ADInstruments, Castle Hill, Australia). The coronary effluent was collected for the measurement of coronary flow.
# [3] = test system: reperfusion induced arrhythmia in rats; assay: Reperfusion induced arrhythmia in rats; assay type: in vivo, rat; conditions: for Ventricular tachycardia Duration: vehicle 46.6 ± 17.5; for Ventricular tachycardia Incident (%): vehicle 100; for Ventricular fibrillation Duration: vehicle 124.2 ± 25.9
# Method: Opened-chest SD (Sprague-Dawley) anesthetized rats underwent myocardial ischemia by 5 min-occlusion of the left main coronary artery and followed by 30 min-reperfusion. During the myocardium reperfusion period, heart rate, blood pressure and EKG changes were recorded. Ventricular ectopic activity was evaluated according to the diagnostic criteria advocated by the Lambeth Convention. The incidences and durations of ventricular tachycardia and ventricular fibrillation were determined.
# [4] = iv infusion 0.5 ug/kg, vehicle 80
# [5] = iv infusion 5 ug/kg, vehicle 80
smiles,measurement,setting,value
"COc1cc2c(cc1OC)-c1c(OC)c(OC)cc3c1C(C2)N(CCOc1ccccc1OC)CC3 (stereo not drawn) [Compound 16, N-[2-(2-methoxyphenoxyl)]ethylnorglaucine]",animal deaths,[1],no animals died
same,reduction in eNOS protein expression caused by ischemia and reperfusion,eNOS,significantly reduced
same,coronary blood flow,[2],increasing coronary blood flow
same,Ventricular tachycardia Duration,[3]; iv infusion 0.5 ug/kg,23.3 ± 4.8 s
same,Mortality (%),[3]; [4],62%
same,Ventricular fibrillation Incident (%),[3]; [4],85%
same,Ventricular tachycardia Incident (%),[3]; iv infusion 0.5 ug/kg,92%
same,Ventricular fibrillation Duration,[3]; iv infusion 0.5 ug/kg,111.5 ± 24.4 s
same,Ventricular tachycardia Duration,[3]; iv infusion 5 ug/kg,27.9 ± 7.9 s
same,Mortality (%),[3]; [5],46%
same,Ventricular fibrillation Incident (%),[3]; [5],82%
same,Ventricular tachycardia Incident (%),[3]; iv infusion 5 ug/kg,91%
same,Ventricular fibrillation Duration,[3]; iv infusion 5 ug/kg,72.2 ± 22.9 s
same,Ventricular tachycardia Duration,[3]; iv infusion 50 ug/kg,9.8 ± 8.8 s
same,Ventricular fibrillation Incident (%),"[3]; iv infusion 50 ug/kg, vehicle 80",54%
same,Mortality (%),"[3]; iv infusion 50 ug/kg, vehicle 80, p < 0.05 vs vehicle",23* %
same,Ventricular tachycardia Incident (%),[3]; iv infusion 50 ug/kg,85%
same,Ventricular fibrillation Duration,[3]; iv infusion 50 ug/kg,42.3 ± 18.6 s
